Results reported in patent publication EP4603105A1, “PHARMACEUTICAL COMPOSITION CONTAINING CYCLIC COMPOUND HAVING SELECTIVE KRAS INHIBITORY EFFECT AGAINST HRAS AND NRAS” (CHUGAI SEIYAKU KABUSHIKI KAISHA, priority 2022, dated 2024).
pIC50, pKd: −log10 of the molar value. *1 amine or outer side, *2 acyl side, *3 side chain or, on linkers, in order; H or OH if unused. Where a SMILES comes first, the peptide text is derived from it. Bridges are numbered along the chain shown (N, C = ends). [ ]: non-standard residue; d: D form. The star is where a group is joined. hPhe(3,5-F2-4-CF3) = N[C@@H](CCc1cc(F)c(C(F)(F)F)c(F)c1)C(=O)O; NPrPhe(4-CF3) = CCCN[C@@H](Cc1ccc(C(F)(F)F)cc1)C(=O)O; NMeGly(cPent) = CN[C@H](C(=O)O)C1CCCC1; X7 = C[C@@](N[*:1])(C(=O)[*:2])C1CC1; NMeD = CN[C@@H](CC(=O)O)C(=O)O; NMeL = CN[C@@H](CC(C)C)C(=O)O; Morpholide = C1CN(*)CCO1; Aze = O=C(O)[C@@H]1CCN1; Sar = CNCC(=O)O

How the values were obtained:
[1] = system: human lung cancer strain NCI-H441; assay type: cell-based
Outline: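 Step one: dispense the test compound in serial DMSO dilutions. Step three: add the reagent and measure […].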

[2] = target: GDP-bound NRAS wild-type protein (Homo sapiens, UniProt P01111); assay: Binding to NRAS by surface plasmon resonance (SPR), KD and KD ratio to KRAS
Outline: (§1)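 Captured GDP-RAS (~100–300 RU) was exposed to increasing compound concentrations, 75 s per step, in running buffer with 10 µM GDP, 10 mM MgCl2 and 4% DMSO at pH 7.4.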

[3] = target: GDP-bound KRAS wild-type protein (Homo sapiens, UniProt P01116); assay: Binding to KRAS by surface plasmon resonance (SPR), dissociation constant KD
Outline: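 Running buffer contained 10 µM GDP and 10 mM MgCl2 to keep RAS in the GDP state, with 4% DMSO at pH 7.4. Compounds were flowed at 100 µL/min in 75 s steps of rising concentration over captured biotin-Avi RAS at 30°C. Sensorgrams were fitted 1:1 for KD.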

HRAS wild-type protein = HRAS wild-type protein (Homo sapiens, UniProt P01112); assay: Binding to HRAS by surface plasmon resonance (SPR), KD and KD ratio to KRAS
Outline: as §1

[4] = ratio of KD for GDP-bound NRAS wild-type protein to KD for KRAS
[5] = ratio of KD for HRAS wild-type protein to KD for KRAS
[6] = ratio of the KD value with respect to GDP-bound NRAS wild-type protein to the KD value with respect to KRAS
[7] = Single Cycle Kinetics, 1:1 binding model
[8] = ratio of the KD value with respect to HRAS wild-type protein to the KD value with respect to KRAS

Sequence of GDP-bound NRAS wild-type protein (P01111 whole entry): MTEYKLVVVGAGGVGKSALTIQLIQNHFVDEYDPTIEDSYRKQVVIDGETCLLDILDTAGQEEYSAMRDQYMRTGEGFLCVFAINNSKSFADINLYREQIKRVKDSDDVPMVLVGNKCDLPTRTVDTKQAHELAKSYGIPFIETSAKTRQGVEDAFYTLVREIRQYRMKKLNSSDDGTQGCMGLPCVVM
Sequence of HRAS wild-type protein (P01112 whole entry): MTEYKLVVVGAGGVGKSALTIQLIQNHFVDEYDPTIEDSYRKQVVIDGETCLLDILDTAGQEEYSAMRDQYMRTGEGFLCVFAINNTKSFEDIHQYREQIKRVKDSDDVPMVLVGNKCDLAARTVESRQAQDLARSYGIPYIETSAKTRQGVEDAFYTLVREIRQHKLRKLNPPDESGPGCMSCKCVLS
Sequence of GDP-bound KRAS wild-type protein (P01116 1-188 isoform P01116-2): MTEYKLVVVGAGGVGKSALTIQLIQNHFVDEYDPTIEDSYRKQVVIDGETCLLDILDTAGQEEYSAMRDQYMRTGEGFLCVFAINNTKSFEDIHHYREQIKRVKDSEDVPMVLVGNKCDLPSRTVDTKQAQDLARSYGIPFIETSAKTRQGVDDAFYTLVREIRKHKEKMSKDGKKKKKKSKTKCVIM

Row | pIC50 [1] | pKd ([3]; Single Cycle Kinetics) | pKd ([3]; 1:1 binding model) | pKd [3, 7] | Structure (SMILES) | NRAS /KRAS [2, 4] | HRAS /KRAS (HRAS wild-type protein; [5]) | NRAS /KRAS [2, 6] | HRAS /KRAS (HRAS wild-type protein; [8])
1 | 7.03 | 9.30 | – | – | CCO[C@@H]1C[C@H]2C(=O)NC3(CCC3)C(=O)N(C)[C@@H](C3CCCC3)C(=O)N(C)[C@H](C(=O)N3CCOCC3)CC(=O)N(C)[C@@H](CC(C)C)C(=O)N[C@@H](C3CC(F)(F)C3)C(=O)N(C)CC(=O)N(C)[C@H]3CCCCCN(C3=O)[C@@H](Cc3ccc(C(F)(F)F)cc3)C(=O)N(C)CC(=O)N[C@@H](CCc3cc(F)c(C(F)(F)F)c(F)c3)C(=O)N2C1 [PP0816] | A (a compound having 10 or more and less than 20 is denoted as A) | B (a compound having 3 or more and less than 10 is denoted as B) | – | –
2 | 6.53 | – | 8.74 | – | CCO[C@@H]1C[C@H]2C(=O)NC3(CC(C)(C)C3)C(=O)N(C)[C@@H](C3CCCC3)C(=O)N(C)[C@H](C(=O)N(C)CC)CC(=O)N(C)[C@@H]([C@H](C)OC)C(=O)N[C@@H]([C@@H](C)CC)C(=O)N3CCC[C@H]3C(=O)N(C)[C@H]3C/C=C\CCN(C3=O)[C@@H](Cc3ccc(C)cc3)C(=O)N(C)CC(=O)N[C@@H](CCc3cc(F)c(C(F)(F)F)c(F)c3)C(=O)N2C1 [PP3163] | A (a compound having 10 or more and less than 20 is denoted as A) | A (a compound having 10 or more and less than 20 is denoted as A) | – | –
3 | 6.36 | 8.37 | – | – | CCCN1C(=O)CN(C)C(=O)[C@@H]2CCN2C(=O)[C@H]([C@@H](C)CC)NC(=O)[C@H](CC(C)C)N(C)C(=O)C[C@@H](C(=O)N2CCOCC2)N(C)C(=O)[C@H](C2CCCC2)N(C)C(=O)[C@](C)(C2CC2)NC(=O)[C@@H]2CCCN2C(=O)[C@H](CCc2cc(F)c(C(F)(F)F)c(F)c2)NC(=O)CN(C)C(=O)[C@@H]1Cc1ccc(C(F)(F)F)cc1 [PP0772] ([NMeL]I[Aze][Sar][NPrPhe(4-CF3)][Sar][hPhe(3,5-F2-4-CF3)]P[X7][NMeGly(cPent)][NMeD]-Morpholide; lactam N-11) | B (a compound having 3 or more and less than 10 is denoted as B) | B (a compound having 3 or more and less than 10 is denoted as B) | – | –
4 | 8.54 | – | – | 10.89 | CCO[C@@H]1C[C@H]2C(=O)NC3(CCC3)C(=O)N(C)[C@@H](C3CCCC3)C(=O)N(C)[C@H](C(=O)N(C)C)CC(=O)N(C)[C@@H](CC3CCCC3)C(=O)N[C@@H]([C@@H](C)CC)C(=O)N(C)CC(=O)N(C)[C@H]3CCCCN(C3=O)[C@@H](Cc3ccc(C(F)(F)F)cc3)C(=O)N(C)CC(=O)N[C@@H](CCc3cc(F)c(C(F)(F)F)c(F)c3)C(=O)N2C1 [PP0700] | – | – | C (A compound having a KD ratio of 0.1 or more and less than 3 is denoted as C) | B (a compound having 3 or more and less than 10 is denoted as B)
5 | 7.78 | – | 9.52 | – | CCO[C@@H]1C[C@H]2C(=O)NC3(CC(C)(C)C3)C(=O)N(C)[C@@H](C3CCCC3)C(=O)N(C)[C@H](C(=O)N(C)C)CC(=O)N(C)[C@@H]([C@@H](C)OC)C(=O)N[C@@H]([C@@H](C)CC)C(=O)N(C3CC3)CC(=O)N(C)[C@H]3C/C=C\CCN(C3=O)[C@@H](Cc3ccc(C)cc3)C(=O)N(C)CC(=O)N[C@@H](CCc3ccc(C(F)(F)F)c(Cl)c3)C(=O)N2C1 [PP3212] | A (a compound having 10 or more and less than 20 is denoted as A) | A (a compound having 10 or more and less than 20 is denoted as A) | – | –
6 | 7.18 | 9.21 | – | – | CCO[C@@H]1C[C@H]2C(=O)NC3(CCC3)C(=O)N(C)[C@@H](C3CCCC3)C(=O)N(C)[C@H](C(=O)N(C)C)CC(=O)N(C)[C@@H](CC)C(=O)N[C@@H]([C@@H](C)CC)C(=O)N(C)CC(=O)N(C)[C@H]3CCCCCN(C3=O)[C@@H](Cc3ccc4ccsc4c3)C(=O)N(C)CC(=O)N[C@@H](CCc3cc(F)c(C(F)(F)F)c(F)c3)C(=O)N2C1 [PP0910] | B (a compound having 3 or more and less than 10 is denoted as B) | B (a compound having 3 or more and less than 10 is denoted as B) | – | –
7 | 7.37 | – | – | 10.54 | CCO[C@@H]1C[C@H]2C(=O)NC3(CCC3)C(=O)N(C)[C@@H](C3CCCC3)C(=O)N(C)[C@H](C(=O)N3CCOCC3)CC(=O)N(C)[C@@H](Cc3cccnc3)C(=O)N[C@@H]([C@@H](C)CC)C(=O)N(C)CC(=O)N(C)[C@H]3CCCCN(C3=O)[C@@H](Cc3ccc(C(F)(F)F)cc3)C(=O)N(C)CC(=O)N[C@@H](CCc3cc(F)c(C(F)(F)F)c(F)c3)C(=O)N2C1 [PP0718] | – | – | C (A compound having a KD ratio of 0.1 or more and less than 3 is denoted as C) | B (a compound having 3 or more and less than 10 is denoted as B)
